Results from patent US11178873B2, “Cyclic N-carboxamide compounds useful as herbicides” (FMC CORPORATION, priority 2015, dated 2021).

Assays:
Assay type in all cases: in vivo
[1] = tested on: sedge, umbrella (small-flower umbrella sedge, Cyperus difformis); experiment: Test B flooded paddy test, sedge, umbrella; conditions: Flood, 250 g ai/ha; scale 0 to 100 (0 no effect, 100 complete control); 13 to 15 d
Outline: (§1)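 Plants at the 2-leaf stage were flooded to 3 cm above soil, and test compounds were applied directly into the paddy water, which was held at that depth throughout. After 13 to 15 d in a greenhouse, injury was rated visually against untreated controls on a 0–100 scale (0 no effect, 100 complete control).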

[2] = tested on: wheat (Triticum aestivum); experiment: Test A postemergence, wheat; conditions: 0 to 100 scale, 0 no effect, 100 complete control
Outline: (§2)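 Preemergence treatment was a directed soil spray; postemergence plants were 2 to 10 cm tall at the one- to two-leaf stage. Compounds were formulated in solvent with surfactant and grown in loam/sand in the greenhouse. Injury was scored visually against untreated controls after ~10 d, on a 0 (no effect) to 100 (complete control) scale.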

[3] = tested on: barnyardgrass (Echinochloa crus-galli); experiment: Test B flooded paddy test, barnyardgrass; conditions: Flood, 250 g ai/ha; scale 0 to 100 (0 no effect, 100 complete control); 13 to 15 d
Outline: as §1

[4] = tested on: velvetleaf (Abutilon theophrasti); experiment: Test A postemergence, velvetleaf; conditions: 0 to 100 scale, 0 no effect, 100 complete control
Excerpt: (§3) Seeds of plant species selected from barnyardgrass (Echinochloa crus-galli), crabgrass, large (large crabgrass, Digitaria sanguinalis), kochia (Kochia scoparia), ragweed (common ragweed, Ambrosia elatior), morningglory (Ipomoea spp.), velvetleaf (Abutilon theophrasti), ryegrass, Italian (Italian ryegrass, Lolium multiflorum), foxtail, giant (giant foxtail, Setaria faberii), wheat (Triticum aestivum), corn (Zea mays), and pigweed (Amaranthus retroflexus), were planted into a blend of loam soil and sand and treated preemergence with a directed soil spray using test chemicals formulated in a non-phytotoxic solvent mixture which included a surfactant. At the same time, plants selected from these crop and weed species and also blackgrass (Alopecurus myosuroides), and galium (catchweed bedstraw, Galium aparine), were planted in pots containing the same blend of loam soil and sand and treated with postemergence applications of test chemicals formulated in the same manner. Plants ranged in height from 2 to 10 cm and were in the one- to two-leaf stage for the postemergence treatment. Treated plants and untreated controls were maintained in a greenhouse for approximately 10 d, after which time all treated plants were compared to untreated controls and visually evaluated for injury. Plant response ratings, summarized in Table A, are based on a 0 to 100 scale where 0 is no effect and 100 is complete control. A dash (-) response means no test result.

[5] = tested on: crabgrass, large (large crabgrass, Digitaria sanguinalis); experiment: Test A postemergence, crabgrass, large; conditions: 0 to 100 scale, 0 no effect, 100 complete control
Excerpt: as §3

[6] = tested on: foxtail, giant (giant foxtail, Setaria faberii); experiment: Test A postemergence, foxtail, giant; conditions: 0 to 100 scale, 0 no effect, 100 complete control
Outline: as §2

[7] = tested on: barnyardgrass (Echinochloa crus-galli); experiment: Test A preemergence, barnyardgrass; conditions: 0 to 100 scale, 0 no effect, 100 complete control
Outline: as §2

[8] = tested on: morningglory (Ipomoea spp.); experiment: Test A postemergence, morningglory; conditions: 0 to 100 scale, 0 no effect, 100 complete control
Excerpt: as §3

corn (Zea mays) [9] = experiment: Test A postemergence, corn; conditions: 0 to 100 scale, 0 no effect, 100 complete control
Outline: as §2

[10] = tested on: foxtail, giant (giant foxtail, Setaria faberii); experiment: Test A preemergence, foxtail, giant; conditions: 0 to 100 scale, 0 no effect, 100 complete control
Outline: as §2

[11] = tested on: morningglory (Ipomoea spp.); experiment: Test A preemergence, morningglory; conditions: 0 to 100 scale, 0 no effect, 100 complete control
Excerpt: as §3

[12] = tested on: crabgrass, large (large crabgrass, Digitaria sanguinalis); experiment: Test A preemergence, crabgrass, large; conditions: 0 to 100 scale, 0 no effect, 100 complete control
Excerpt: as §3

[13] = tested on: wheat (Triticum aestivum); experiment: Test A preemergence, wheat; conditions: 0 to 100 scale, 0 no effect, 100 complete control
Excerpt: as §3

[14] = tested on: pigweed (Amaranthus retroflexus); experiment: Test A preemergence, pigweed; conditions: 0 to 100 scale, 0 no effect, 100 complete control
Outline: as §2

[15] = tested on: barnyardgrass (Echinochloa crus-galli); experiment: Test A postemergence, barnyardgrass; conditions: 0 to 100 scale, 0 no effect, 100 complete control
Outline: as §2

[16] = tested on: ducksalad (Heteranthera limosa); experiment: Test B flooded paddy test, ducksalad; conditions: Flood, 250 g ai/ha; scale 0 to 100 (0 no effect, 100 complete control); 13 to 15 d
Outline: as §1

corn (Zea mays) [17] = experiment: Test A preemergence, corn; conditions: 0 to 100 scale, 0 no effect, 100 complete control
Excerpt: as §3

[18] = tested on: pigweed (Amaranthus retroflexus); experiment: Test A postemergence, pigweed; conditions: 0 to 100 scale, 0 no effect, 100 complete control
Outline: as §2

rice (Oryza sativa) = experiment: Test B flooded paddy test, rice; conditions: Flood, 250 g ai/ha; scale 0 to 100 (0 no effect, 100 complete control); 13 to 15 d
Outline: as §1

[19] = tested on: velvetleaf (Abutilon theophrasti); experiment: Test A preemergence, velvetleaf; conditions: 0 to 100 scale, 0 no effect, 100 complete control
Excerpt: as §3

SMILES | Plant response rating, Sedge, Umbrella [1] | Plant response rating, Wheat ([2]; 125 g ai/ha) | Plant response rating, Wheat ([2]; 500 g ai/ha) | Plant response rating, Barnyardgrass [3] | Plant response rating, Velvetleaf ([4]; 125 g ai/ha) | Plant response rating, Velvetleaf ([4]; 500 g ai/ha) | Plant response rating, Crabgrass, Large ([5]; 125 g ai/ha) | Plant response rating, Crabgrass, Large ([5]; 500 g ai/ha) | Plant response rating, Foxtail, Giant ([6]; 125 g ai/ha) | Plant response rating, Foxtail, Giant ([6]; 500 g ai/ha) | Plant response rating, Barnyardgrass ([7]; 125 g ai/ha) | Plant response rating, Barnyardgrass ([7]; 500 g ai/ha) | Plant response rating, Morningglory ([8]; 125 g ai/ha) | Plant response rating, Morningglory ([8]; 500 g ai/ha) | Plant response rating, Corn (corn (Zea mays) [9]; 125 g ai/ha) | Plant response rating, Corn (corn (Zea mays) [9]; 500 g ai/ha) | Plant response rating, Foxtail, Giant ([10]; 125 g ai/ha) | Plant response rating, Foxtail, Giant ([10]; 500 g ai/ha) | Plant response rating, Morningglory ([11]; 125 g ai/ha) | Plant response rating, Morningglory ([11]; 500 g ai/ha) | other results
O=C(Nc1ccccc1C(F)(F)F)N1C(=O)OCC1c1ccc(F)c(F)c1 (stereo not drawn) [Compound 1] | 0 | 0 | 0 | 0 | 0 | 0 | 0 | 20 | 0 | 0 | 0 | 0 | 0 | 0 | 0 | 0 | 0 | 0 | 0 | 0 | Plant response rating, Crabgrass, Large ([12]; 125 g ai/ha): 30; Plant response rating, Crabgrass, Large ([12]; 500 g ai/ha): 70; Plant response rating, Wheat ([13]; 125 g ai/ha): 0; Plant response rating, Wheat ([13]; 500 g ai/ha): 0; Plant response rating, Pigweed ([14]; 125 g ai/ha): 0; Plant response rating, Pigweed ([14]; 500 g ai/ha): 0; Plant response rating, Barnyardgrass ([15]; 125 g ai/ha): 0; Plant response rating, Barnyardgrass ([15]; 500 g ai/ha): 0; Plant response rating, Ducksalad [16]: 0; Plant response rating, Corn (corn (Zea mays) [17]; 125 g ai/ha): 0; Plant response rating, Corn (corn (Zea mays) [17]; 500 g ai/ha): 0; Plant response rating, Pigweed ([18]; 125 g ai/ha): 0; Plant response rating, Pigweed ([18]; 500 g ai/ha): 0; Plant response rating, Rice (rice (Oryza sativa)): 0; Plant response rating, Velvetleaf ([19]; 125 g ai/ha): 0; Plant response rating, Velvetleaf ([19]; 500 g ai/ha): 0
O=C(Nc1ccccc1Cl)N1C(=O)OCC1c1ccc(F)c(F)c1 (stereo not drawn) [Compound 2] | 0 | 0 | 0 | 0 | 0 | 0 | 0 | 0 | 0 | 0 | 0 | 0 | 0 | 0 | 0 | 0 | 0 | 30 | 0 | 0 | Plant response rating, Crabgrass, Large ([12]; 125 g ai/ha): 40; Plant response rating, Crabgrass, Large ([12]; 500 g ai/ha): 80; Plant response rating, Wheat ([13]; 125 g ai/ha): 0; Plant response rating, Wheat ([13]; 500 g ai/ha): 0; Plant response rating, Pigweed ([14]; 125 g ai/ha): 0; Plant response rating, Pigweed ([14]; 500 g ai/ha): 0; Plant response rating, Barnyardgrass ([15]; 125 g ai/ha): 0; Plant response rating, Barnyardgrass ([15]; 500 g ai/ha): 0; Plant response rating, Ducksalad [16]: 0; Plant response rating, Corn (corn (Zea mays) [17]; 125 g ai/ha): 0; Plant response rating, Corn (corn (Zea mays) [17]; 500 g ai/ha): 0; Plant response rating, Pigweed ([18]; 125 g ai/ha): 0; Plant response rating, Pigweed ([18]; 500 g ai/ha): 0; Plant response rating, Rice (rice (Oryza sativa)): 0; Plant response rating, Velvetleaf ([19]; 125 g ai/ha): 0; Plant response rating, Velvetleaf ([19]; 500 g ai/ha): 0
O=C(Nc1ccccc1F)N1C(=O)OCC1c1ccc(Cl)cc1 (stereo not drawn) [Compound 4] | 0 | 0 | 0 | 0 | 0 | 0 | 0 | 0 | 0 | 0 | 0 | 0 | 0 | 0 | 0 | 0 | 0 | 0 | 0 | 0 | Plant response rating, Crabgrass, Large ([12]; 125 g ai/ha): 0; Plant response rating, Crabgrass, Large ([12]; 500 g ai/ha): 20; Plant response rating, Wheat ([13]; 125 g ai/ha): 0; Plant response rating, Wheat ([13]; 500 g ai/ha): 0; Plant response rating, Pigweed ([14]; 125 g ai/ha): 0; Plant response rating, Pigweed ([14]; 500 g ai/ha): 0; Plant response rating, Barnyardgrass ([15]; 125 g ai/ha): 0; Plant response rating, Barnyardgrass ([15]; 500 g ai/ha): 0; Plant response rating, Ducksalad [16]: 0; Plant response rating, Corn (corn (Zea mays) [17]; 125 g ai/ha): 0; Plant response rating, Corn (corn (Zea mays) [17]; 500 g ai/ha): 0; Plant response rating, Pigweed ([18]; 125 g ai/ha): 0; Plant response rating, Pigweed ([18]; 500 g ai/ha): 0; Plant response rating, Rice (rice (Oryza sativa)): 0; Plant response rating, Velvetleaf ([19]; 125 g ai/ha): 0; Plant response rating, Velvetleaf ([19]; 500 g ai/ha): 0
